Assay results reported in patent US6534035B1, “Methods of inhibiting clot formation” (President and Fellows of Harvard College, priority 1998, dated 2003).
Peptide text beside a SMILES is read from it. * marks the point of attachment. Biotin = O=C1N[C@H]2[C@H](CS[C@H]2CCCCC(=O)*)N1

How the values were obtained:
Assay type in all cases: biochemical
[1] = target: T1, factor XIIIa-mediated crosslinking of α2AP to fibrin (Homo sapiens, UniProt P00488); assay: Inhibition of α2AP-fibrin crosslinking in plasma clots by α2AP polypeptide (immunoblot)
T1 construct: from tissue; host or cells: human plasma clotted with thrombin and calcium
T1 sequence (P00488 39-732 limits assumed): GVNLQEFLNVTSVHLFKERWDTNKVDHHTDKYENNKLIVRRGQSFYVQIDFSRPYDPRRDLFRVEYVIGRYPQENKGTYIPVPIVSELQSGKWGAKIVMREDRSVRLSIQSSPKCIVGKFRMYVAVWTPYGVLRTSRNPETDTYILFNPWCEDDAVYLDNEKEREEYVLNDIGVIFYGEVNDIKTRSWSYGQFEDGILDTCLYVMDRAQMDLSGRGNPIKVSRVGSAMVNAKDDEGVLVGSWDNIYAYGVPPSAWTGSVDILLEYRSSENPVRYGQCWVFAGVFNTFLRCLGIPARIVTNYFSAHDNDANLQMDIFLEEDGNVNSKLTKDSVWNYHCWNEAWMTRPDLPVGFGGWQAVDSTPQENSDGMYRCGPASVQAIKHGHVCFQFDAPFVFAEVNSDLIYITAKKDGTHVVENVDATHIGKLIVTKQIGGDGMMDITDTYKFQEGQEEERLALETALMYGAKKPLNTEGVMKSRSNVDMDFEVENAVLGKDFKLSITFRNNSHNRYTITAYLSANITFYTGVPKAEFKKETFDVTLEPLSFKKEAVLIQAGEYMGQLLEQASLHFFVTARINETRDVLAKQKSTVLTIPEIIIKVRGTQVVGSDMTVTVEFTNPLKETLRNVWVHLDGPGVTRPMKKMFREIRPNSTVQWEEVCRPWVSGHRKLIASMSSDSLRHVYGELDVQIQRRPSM
Protocol: To inhibit the crosslinking of α2AP to fibrin, a polypeptide spanning the crosslinking site on the amino terminus of α2AP (SEQ ID NO:2) was synthesized. The purity of the polypeptide was analyzed by high performance liquid chromatography, and its composition was verified by amino acid analysis on a Waters Picotag system. The α2AP polypeptide was then solubilized in 20 mM Tris-HCl and the pH was adjusted to 7.0. Various concentrations of polypeptide (7.5 μl, 0-5 mM final) were mixed with 20 μl of plasma, 1.25 μl of calcium chloride (0.4 mM), and 1.25 μof thrombin (10.0 units/ml) and clotted for 90 minutes at 37° C. as described above. The clots were solubilized and analyzed by immunoblotting as described above.

[2] = target: T2, FXIIIa (Homo sapiens, UniProt P00488); assay: FXIIIa catalytic half-life: crosslinking of substrates into fibrin clots of various ages; settings: substrate added to 2 or 4 hour old clots
T2 construct: purchased American Diagnostica
T2 sequence (P00488 39-732 limits assumed): T1 sequence (P00488 39-732 limits assumed)
Protocol: (§1) Experiments were performed to determine how long FXIIIa in clots could crosslink various substrates such as human ^125I -α2AP, α2AP13-24 (SEQ ID NO:2), and 5-(biotinamido)pentylamine, into fibrin. In a typical experiment, clots were prepared (50 μl final volume) in duplicate by combining fibrinogen (2 mg/ml final), CaCl2 (2 mM final), buffer (Tris-buffered saline pH 7.4) and thrombin (1 U/ml) and incubating at 37° C. Synchronous with the addition of thrombin, or up to 240 minutes afterwards, the FXIIIa substrates 5-(biotinamido)pentylamine (0.5 mM final), ^125I -α2AP (70 μg/ml final), and α2AP13-24 (0 to 1 mM final) were mixed and added to the clot. In one set of control samples, FXIIIa was inhibited with iodoacetamide (10 mg/ml) prior to the addition of substrate; to another set, no substrate was added. After 2 hours of incubation at 37° C., iodoacetamide (10 mg/ml) was added to stop the reaction. The tubes were then centrifuged at 14,000 rpm for 2 minutes, washed and compressed in 1 ml saline to remove unbound proteins, and centrifuged again at 14,000 rpm for 2 minutes. After removal of the supernatant, the clots were solubilized in 100 μL of 9M urea, pH 9.0 at 37° C. for 60 minutes. Then 100 μl of SDS reducing sample buffer was added and the clots were placed at 85° C. for 30 minutes until fully solubilized. The samples were examined by SDS-PAGE. Crosslinked ^125I-α2AP was detected and quantitated by phosphorimaging. Samples containing crosslinked α2AP13-24 and pentylamine substrates were electroblotted to PVDF membranes and detected by ^125I-streptavidin followed by phosphorimaging or by streptavidin-peroxidase followed by the developing agents 5-bromo-4-chloro-3-indolyl phosphate-nitro blue tetrazolium using methods known in the art. In experiments examining the effect of specific amino acid residues on the crosslinking of the α2AP13-24 peptide (SEQ ID NO:2) to fibrin, crosslinking was detected by immunoblotting with an anti-peptide antibody directed against this epitope followed by ^125I-protein A and phosphorimaging. […]

[3] = target: T2, FXIIIa; assay: Dose-dependent crosslinking of α2AP13-24 into fibrin clots; settings: fibrin clots, compared to control clots
Protocol: as §1, with “In one set of control samples, FXIIIa was inhibited with iodoacetamide (10 mg/ml) prior to the addition of substrate; to another set, no substrate was added. After 2 hours of incubation at 37° C., iodoacetamide (10 mg/ml) was added to stop the reaction. The tubes were then centrifuged at 14,000 rpm for 2 minutes, washed and compressed in 1 ml saline to remove unbound proteins, and centrifuged again at 14,000 rpm for 2 minutes. After removal of the supernatant, the clots were solubilized in 100 μL of 9M urea, pH 9.0 at 37° C. for 60 minutes. Then 100 μl of SDS reducing sample buffer was added and the clots were placed at 85° C. for 30 minutes until fully solubilized. The samples were examined by SDS-PAGE.” left out

[4] = target: T3, human plasma FXIII (Homo sapiens, UniProt P00488); assay: Crosslinking of α2AP13-24 into fibrin by plasma FXIII in FXIII-free fibrinogen
T3 construct: purchased American Diagnostica; host or cells: purified from human plasma
T3 sequence (P00488 39-732 limits assumed): T1 sequence (P00488 39-732 limits assumed)
Protocol: Fibrin clots (50 μl) were prepared in duplicate by mixing FXIII-free fibrinogen (2 mg/ml final), α2AP13-24 (SEQ ID NO:2; 0.5 mM final), CaCl2 (2 mM final), human plasma FXIII (100 nM/L final) and guinea pig tissue transglutaminase (100 nM/L final) and thrombin (1 U/ml final) and incubating at 37° C. for 2 hours. The crosslinking of α2AP13-24 was detected as described above.

`CC(C)C[C@H](NC(=O)[C@H](CC(C)C)NC(=O)[C@@H](NC(=O)[C@H](CC(C)C)NC(=O)[C@@H]1CCCN1C(=O)[C@H](CO)NC(=O)[C@@H](NC(=O)[C@H](CCC(N)=O)NC(=O)[C@H](CCC(=O)O)NC(=O)[C@H](CCC(N)=O)NC(=O)[C@@H](N)CC(N)=O)C(C)C)[C@@H](C)O)C(=O)N[C@@H](CCCCNC(=O)CCCC[C@@H]1SC[C@@H]2NC(=O)N[C@@H]21)C(=O)O` [α2AP13-24, NQEQVSPLTLLK] (H-NQEQVSPLTLLK(Biotin)-OH) was tested, and the α2AP-fibrin crosslinking ([1]; peptide concentrations of 1.5 mM and 3.0 mM) was “little α2AP crosslinking was visible”, the “formation of fibrin γ-γ crosslinks” value ([1]; plasma clots formed with α2AP polypeptide) was “no apparent effect” and the “peptide concentration giving progressively less α2AP-fibrin crosslinking” value ([1]; plasma clots, 90 minutes at 37° C.) was no less than 0.38 mM. The “residual FXIIIa crosslinking of substrate” value [2] was “little residual FXIIIa crosslinking”, the “lowest concentration at which crosslinking is seen” value [3] was 1.3 µM and the “crosslinking of peptide to fibrin” value ([4]; equivalent amount of purified exogenous FXIIIa added to FXIIIa-deficient fibrinogen) was “significantly more crosslinking”. The “crosslinking of peptide to fibrin” value ([4]; purified FXIIIa-deficient fibrinogen, no enzyme added) was “little, if any, significant crosslinking”.
